Data taken from PubChem BioAssay AID2060329 (Molecular Pharmacology Branch, DTP, NCI, 2025).

System: MCF7 multi-cell spheroids with HUVEC/MSC, viability
Assay: Anticancer human tumor MCF7 cell line growth inhibition [IpAb];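 also: spheroids exposed to agents for seven days before readout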
Settings: for IC50: curve of first compound; for viability, T/C: stronger effect = lower value; active = viability on the fitted dose curve at most 10% of control; inactive = the rest
Description: Combinatorial screen of targeted agents with ipatasertib and abemaciclib in multi-cell type tumor spheroids
A high-throughput screen of multi-cell type tumor spheroids was designed to identify active combinations of targeted small molecules and ipatasertib or abemaciclib. Complex spheroids include a stromal component modeled by human endothelial cells (HUVEC) and fibroblasts modeled by human mesenchymal stem cells (MSCs). The concentration ranges selected for each drug and investigational agent were based upon clinically achievable concentrations if the clinical Cmax of the agent was known.
Compounds. The drugs and investigational agents: ipatasertib (NSC767898), abemaciclib(NSC768073), selumetinib (NSC741078), trametinib (758246), adavosertib (NSC754352), everolimus (NSC733504), sapanisertib (NSC764658), vemurafenib (NSC761431), venetoclax (NSC766270), copanlisib (NSC809693), apelisib (NSC765974), palbociblib (NSC758247), vemurafenib (NSC761431), dabrafenib (NSC764134), ravoxertinib (NSC781343), BMS-387032 (NSC767048), sotorasib (NSC818433), talazoparib (NSC767125) and afursertib (NSC778305), were obtained from the National Cancer Institute (NCI) Developmental Therapeutics Program Chemical Repository. The FDA-approved anticancer drug set is available from the NCI Developmental Therapeutics Program. […] The stock solutions were prepared in dimethyl sulfoxide (DMSO, Sigma-Aldrich, St. Louis, MO, cat. D2650) at 800-fold the tested concentration and stored at -70 degrees C prior to their use. All drugs and investigational agents were tested over a range starting from a high concentration at or near the clinical Cmax and decreasing in half-log increments. If the clinical Cmax for an agent had not been determined, the highest concentration tested was 10 microM.
NCI60 Cell Culture. NCI60 cell lines were obtained from the NCI Developmental Therapeutics Program Tumor Repository. For each lot of cells, the Repository performed Applied Biosystems AmpFLSTR Identifiler testing with PCR amplification to confirm consistency with the published Identifier STR profile for each cell line. Cells were kept in continuous culture for no more than 20 passages. The optimal seeding densities for each of the cell lines at each time point assessed were determined prior to performing the concentration response studies. Briefly, the NCI60 human tumor lines were grown as monolayers in RPMI 1640 medium supplemented with 10% FBS and 2 mmol/L L-glutamine.
An additional 9 lines were from the NCI60 cell line panel including MDA-MB-231 breast carcinoma, MDA-MB-468 breast carcinoma, MCF7 breast carcinoma, Hs578T breast carcinoma, MALME-3M melanoma, SK-MEL-2 melanoma, SK-OV-3 ovarian carcinoma, DU-145 prostate carcinoma, PC-3 prostate carcinoma, all cell lines along with major genetic alterations are listed on Table 2. Pooled donor human umbilical vein endothelial cells (HUVEC, Lonza, cat. CC-2519) and human mesenchymal stem cells (hMSC, Lonza, cat. PT-2501) were purchased from Lonza (Walkersville, MD).
PDMR cell lines were grown in complete medium (DC medium): Dulbecco's modified Eagle's medium (DMEM)/F12 supplemented with 5% fetal bovine serum (FBS), 2 mM L-glutamine, 100 U/mL penicillin and 100 µg/ml streptomycin, 0.4 µg/ml hydrocortisone, 10 ng/ml epidermal growth factor (EGF) recombinant human protein, 24 µg/mL adenine, and 0.1 mg/mL primocin. During culture from frozen stock vials, PDMR cells were cultured in the same medium containing 10 µM Y-27632 (see Table 3). The PDCs were cultured in complete DMEM/F12 media without 10 microM Y-27632 dihydrochloride for at least two passages prior to the screen. The pooled donor HUVEC and hMSC were cultured in endothelial cell growth medium 2 (PromoCell, Heidelberg, Germany, cat. C-22011) and mesenchymal stem cell growth medium 2 (PromoCell, cat. C-28009), respectively. For all experiments, HUVEC and hMSC were used at passages </=5.
[…]

[1] = second compound 0.1 µM, first compound 0.0316 µM
[2] = second compound 0.1 µM, first compound 0.1 µM
[3] = second compound 0.1 µM, first compound 0.316 µM
[4] = second compound 0.1 µM, first compound 1 µM
[5] = second compound 0.316 µM, first compound 0.0316 µM
[6] = second compound 0.316 µM, first compound 0.1 µM
[7] = second compound 0.316 µM, first compound 0.316 µM
[8] = second compound 0.316 µM, first compound 1 µM
[9] = second compound 1 µM, first compound 0.0316 µM
[10] = second compound 1 µM, first compound 0.1 µM
[11] = second compound 1 µM, first compound 0.316 µM
[12] = second compound 1 µM, first compound 1 µM
[13] = second compound 3.16 µM, first compound 0.0316 µM
[14] = second compound 3.16 µM, first compound 0.1 µM
[15] = second compound 3.16 µM, first compound 0.316 µM
[16] = second compound 3.16 µM, first compound 1 µM
[17] = second compound 10 µM, first compound 0.0316 µM
[18] = second compound 10 µM, first compound 0.1 µM
[19] = second compound 10 µM, first compound 0.316 µM
[20] = second compound 10 µM, first compound 1 µM

CC(=O)c1c(C)c2cnc(Nc3ccc(N4CCNCC4)cn3)nc2n(C2CCCC2)c1=O + CC(C)NCC(C(=O)N1CCN(c2ncnc3c2C(C)CC3O)CC1)c1ccc(Cl)cc1
< 0.949 nM: IC50 (second compound 10 µM)
23.6 nM: IC50 (second compound 3.16 µM)
inactive: viability, T/C (second compound 0.1 µM, first compound 0.000949 µM) 96.3% | viability, T/C (second compound 0.1 µM, first compound 0.003 µM) 100% | viability, T/C (second compound 0.1 µM, first compound 0.00949 µM) 97.1% | viability, T/C (second compound 0.1 µM, first compound 0.03 µM) 90.7% | viability, T/C (second compound 0.1 µM, first compound 0.0949 µM) 89.6% | viability, T/C (second compound 0.1 µM, first compound 0.3 µM) 86.8% | viability, T/C (second compound 0.316 µM, first compound 0.000949 µM) 80.9% | viability, T/C (second compound 0.316 µM, first compound 0.003 µM) 82.7% | viability, T/C (second compound 0.316 µM, first compound 0.00949 µM) 87.9% | viability, T/C (second compound 0.316 µM, first compound 0.03 µM) 81.8% | viability, T/C (second compound 0.316 µM, first compound 0.0949 µM) 77.1% | viability, T/C (second compound 0.316 µM, first compound 0.3 µM) 73.9% | viability, T/C (second compound 1 µM, first compound 0.000949 µM) 67.4% | viability, T/C (second compound 1 µM, first compound 0.003 µM) 71.4% | viability, T/C (second compound 1 µM, first compound 0.00949 µM) 63.1% | viability, T/C (second compound 1 µM, first compound 0.03 µM) 62.4% | viability, T/C (second compound 1 µM, first compound 0.0949 µM) 55.5% | viability, T/C (second compound 1 µM, first compound 0.3 µM) 49.9% | viability, T/C (second compound 3.16 µM, first compound 0.000949 µM) 45.1% | viability, T/C (second compound 3.16 µM, first compound 0.003 µM) 57.4% | viability, T/C (second compound 3.16 µM, first compound 0.00949 µM) 52.2% | viability, T/C (second compound 3.16 µM, first compound 0.03 µM) 48.2% | viability, T/C (second compound 3.16 µM, first compound 0.0949 µM) 46.9% | viability, T/C (second compound 3.16 µM, first compound 0.3 µM) 39.4% | viability, T/C (second compound 10 µM, first compound 0.000949 µM) 41.6% | viability, T/C (second compound 10 µM, first compound 0.003 µM) 42.7% | viability, T/C (second compound 10 µM, first compound 0.00949 µM) 36.9% | viability, T/C (second compound 10 µM, first compound 0.03 µM) 34% | viability, T/C (second compound 10 µM, first compound 0.0949 µM) 34.5% | viability, T/C (second compound 10 µM, first compound 0.3 µM) 23.2%
275 nM: IC50 (second compound 1 µM)
> 300 nM: IC50 (second compound 0.1 µM) | IC50 (second compound 0.316 µM)

COc1c(OCCCN2CCOCC2)ccc2c3n(c(=NC(=O)c4cnc(N)nc4)nc12)CCN3 + CC(C)NCC(C(=O)N1CCN(c2ncnc3c2C(C)CC3O)CC1)c1ccc(Cl)cc1
31.7 nM: IC50 (second compound 0.316 µM)
14.6 nM: IC50 (second compound 1 µM)
49.2 nM: IC50 (second compound 0.1 µM)
active: viability, T/C [4] 11.8% | viability, T/C [8] 12.4% | viability, T/C [16] 10.6% | viability, T/C [20] 5.07%
inactive: viability, T/C (second compound 0.1 µM, first compound 0.00316 µM) 86% | viability, T/C (second compound 0.1 µM, first compound 0.01 µM) 80.2% | viability, T/C [1] 58.3% | viability, T/C [2] 37% | viability, T/C [3] 9.3% | viability, T/C (second compound 0.316 µM, first compound 0.00316 µM) 75.1% | viability, T/C (second compound 0.316 µM, first compound 0.01 µM) 65.8% | viability, T/C [5] 49.8% | viability, T/C [6] 30.5% | viability, T/C [7] 9.83% | viability, T/C (second compound 1 µM, first compound 0.00316 µM) 61.9% | viability, T/C (second compound 1 µM, first compound 0.01 µM) 56.4% | viability, T/C [9] 37.7% | viability, T/C [10] 22% | viability, T/C [11] 10.7% | viability, T/C [12] 11.2% | viability, T/C (second compound 3.16 µM, first compound 0.00316 µM) 45.9% | viability, T/C (second compound 3.16 µM, first compound 0.01 µM) 48.7% | viability, T/C [13] 35.4% | viability, T/C [14] 32% | viability, T/C [15] 9.39% | viability, T/C (second compound 10 µM, first compound 0.00316 µM) 33.8% | viability, T/C (second compound 10 µM, first compound 0.01 µM) 34.9% | viability, T/C [17] 37.4% | viability, T/C [18] 21.7% | viability, T/C [19] 6.28%
< 3.16 nM: IC50 (second compound 3.16 µM) | IC50 (second compound 10 µM)

Cc1nc(NC(=O)N2CCCC2C(N)=O)sc1-c1ccnc(C(C)(C)C(F)(F)F)c1 (stereo not given) + CC(C)NCC(C(=O)N1CCN(c2ncnc3c2C(C)CC3O)CC1)c1ccc(Cl)cc1
< 31.6 nM: IC50 (second compound 1 µM) | IC50 (second compound 3.16 µM) | IC50 (second compound 10 µM)
1810 nM: IC50 (second compound 0.1 µM)
398 nM: IC50 (second compound 0.316 µM)
inactive: viability, T/C [1] 68.9% | viability, T/C [2] 66.4% | viability, T/C [3] 56.9% | viability, T/C [4] 52.7% | viability, T/C (second compound 0.1 µM, first compound 3.16 µM) 49.6% | viability, T/C (second compound 0.1 µM, first compound 10 µM) 20.4% | viability, T/C [5] 62.4% | viability, T/C [6] 57% | viability, T/C [7] 50.3% | viability, T/C [8] 42.8% | viability, T/C (second compound 0.316 µM, first compound 3.16 µM) 37.8% | viability, T/C (second compound 0.316 µM, first compound 10 µM) 19.9% | viability, T/C [9] 45.8% | viability, T/C [10] 52.7% | viability, T/C [11] 36.2% | viability, T/C [12] 34.7% | viability, T/C (second compound 1 µM, first compound 3.16 µM) 34.4% | viability, T/C (second compound 1 µM, first compound 10 µM) 9.85% | viability, T/C [13] 36.9% | viability, T/C [14] 38.1% | viability, T/C [15] 35.4% | viability, T/C [16] 29.5% | viability, T/C (second compound 3.16 µM, first compound 3.16 µM) 27.1% | viability, T/C (second compound 3.16 µM, first compound 10 µM) 7.55% | viability, T/C [17] 28.6% | viability, T/C [18] 25.9% | viability, T/C [19] 26.1% | viability, T/C [20] 21.5% | viability, T/C (second compound 10 µM, first compound 3.16 µM) 28.4% | viability, T/C (second compound 10 µM, first compound 10 µM) 1.68%
